Data published in US8993570B2, “Substituted triazolo-pyridazine derivatives” (Concert Pharmaceuticals, Inc., priority 2009, dated 2015).

Tests used:
[1] = Metabolic stability in human liver microsomes; assay type: in vitro ADME; settings: 0.25 μM test compound; for % Parent Remaining (30 min) Ave ± SD: human liver microsomes 2.0 mg/mL, 2 mM NADPH, pH 7.4, 37° C.; for half-life at 0.25 μM: pH 7.4, in vitro t1/2 in human liver microsomes 2.0 mg/mL, NC = not calculable due to <20% metabolism in HLM and flat profiles, read-out: t1/2 (min) Ave ± SD
Experimental: Microsomal Assay: Human liver microsomes (20 mg/mL) were obtained from Xenotech, LLC (Lenexa, Kans.). β-nicotinamide adenine dinucleotide phosphate, reduced form (NADPH), magnesium chloride (MgCl2), and dimethyl sulfoxide (DMSO) were purchased from Sigma-Aldrich.
Determination of Metabolic Stability: 7.5 mM stock solutions of test compounds were prepared in DMSO. The 7.5 mM stock solutions were diluted to 12.5 μM in acetonitrile (ACN). The 20 mg/mL human liver microsomes were diluted to 2.5 mg/mL in 0.1 M potassium phosphate buffer, pH 7.4, containing 3 mM MgCl2. The diluted microsomes were added to wells of a 96-well deep-well polypropylene plate in triplicate. […] of the 12.5 μM test compound was added to the microsomes and the mixture was pre-warmed for 10 minutes. Reactions were initiated by addition of pre-warmed NADPH solution. The final reaction volume was 0.5 mL and contains 2.0 mg/mL human liver microsomes, 0.25 μM test compound, and 2 mM NADPH in 0.1 M potassium phosphate buffer, pH 7.4, and 3 mM MgCl2. The reaction mixtures were incubated at 37° C., and 50 μL aliquots were removed at 0, 5, 10, 20, and 30 minutes and added to shallow-well 96-well plates which contain 50 μL of ice-cold ACN with internal standard to stop the reactions. The plates were stored at 4° C. for 20 minutes after which 100 μL of water was added to the wells of the plate before centrifugation to pellet precipitated proteins. Supernatants were transferred to another 96-well plate and analyzed for amounts of parent remaining by LC-MS/MS using an Applied Bio-systems API 4000 mass spectrometer. The same procedure was followed for TPA-023 and the positive control, 7-ethoxycoumarin (1 μM). Testing was done in triplicate and individual compounds were tested in two or four different runs.
The in vitro t1/2s for test compounds were calculated from the slopes of the linear regression of % parent remaining (ln) vs incubation time relationship: in vitro t1/2=0.693/k k=−[slope of linear regression of % parent remaining (ln) vs incubation time]. Data analysis was performed using Microsoft Excel Software.
The results of these experiments are shown in Table 3, below, and in FIGS. 1 and 2. In the Table and the two Figures, “% Parent remaining” refers to the percentage of starting material remaining at the specified time point.

[2] = humans, phase I clinical trial, cited from earlier work

SMILES	% Parent Remaining (30 min) Ave ± SD [1]	also measured
[2H]C([2H])([2H])C(O)(c1cc2nnc(-c3ccccc3F)n2nc1OCc1ncnn1CC)C([2H])([2H])[2H] [Compound 202, 2-(6-((1-ethyl-1H-1,2,4-triazol-5-yl)methoxy)-3-(2-fluorophenyl)[1,2,4]triazolo[4,3-b]pyridazin-7-yl)propan-1,1,1,3,3,3-d6-2-ol]	82 ± 2.8%	
[2H]C([2H])([2H])n1ncnc1COc1nn2c(-c3ccccc3F)nnc2cc1C(C([2H])([2H])[2H])(C([2H])([2H])[2H])C([2H])([2H])[2H] [Compound 109, 7-d9-tert-Butyl-3-(2-fluorophenyl)-6-((1-d3-methyl-1H-1,2,4-triazol-5-yl)methoxy)-[1,2,4]triazolo[4,3-b]pyridazine]	100 ± 5.7%	
[2H]C([2H])(Oc1nn2c(-c3ccccc3F)nnc2cc1C(C([2H])([2H])[2H])(C([2H])([2H])[2H])C([2H])([2H])[2H])c1ncnn1C([2H])([2H])C([2H])([2H])[2H] [Compound 106, 7-d9-tert-Butyl-6-((1-d5-ethyl-1H-1,2,4-triazol-5-yl)-methoxy-d2)-3-(2-fluorophenyl)-[1,2,4]triazolo[4,3-b]pyridazine]	89 ± 2.5%	
[2H]C([2H])([2H])C(c1cc2nnc(-c3ccccc3F)n2nc1OCc1ncnn1CC)(C([2H])([2H])[2H])C([2H])([2H])[2H] [Compound 102, 7-d9-tert-Butyl-6-((1-ethyl-1H-1,2,4-triazol-5-yl)methoxy)-3-(2-fluorophenyl)-[1,2,4]-triazolo[4,3-b]pyridazine]	80 ± 3.3%	half-life at 0.25 μM [1]: 85.6 ± 6.1 min
CCn1ncnc1COc1nn2c(-c3ccccc3F)nnc2cc1C(C)(C)C [TPA023, 7-tert-Butyl-6-(1-ethyl-1H-1,2,4-triazol-5-ylmethoxy)-3-(2-fluorophenyl)-1,2,4-triazolo[4,3-b]pyridazine]	62 ± 3.1%	sedative effects ([2]; certain doses tested): sedative effects at certain doses tested; anxiolytic effects [2]: anxiolytic effects; effect on alertness, muscle relaxation or memory [2]: no effect; half-life at 0.25 μM [1]: 44.5 ± 4.4 min
[2H]C([2H])(Oc1nn2c(-c3ccccc3F)nnc2cc1C(C([2H])([2H])[2H])(C([2H])([2H])[2H])C([2H])([2H])[2H])c1ncnn1C([2H])([2H])[2H] [Compound 110, 7-d9-tert-Butyl-3-(2-fluorophenyl)-6-((1-d3-methyl-1H-1,2,4-triazol-5-yl)-methoxy-d2)-[1,2,4]triazolo[4,3-b]pyridazine]	91 ± 7.1%	
[2H]C([2H])(Oc1nn2c(-c3ccccc3F)nnc2cc1C(O)(C([2H])([2H])[2H])C([2H])([2H])[2H])c1ncnn1C([2H])([2H])C([2H])([2H])[2H] [Compound 206, 2-(6-((1-d5-Ethyl-1H-1,2,4-triazol-5-1)methoxy-d2)-3-(2-fluorophenyl)-[1,2,4]triazolo[4,3-b]pyridazin-7-yl)propan-1,1,1,3,3,3-d6-2-ol]	92 ± 3.5%	
[2H]C([2H])([2H])C([2H])([2H])n1ncnc1COc1nn2c(-c3ccccc3F)nnc2cc1C(C([2H])([2H])[2H])(C([2H])([2H])[2H])C([2H])([2H])[2H] [Compound 105]	90 ± 0.7%	
